Measured values published in patent US7531573B2 (priority 1994, dated 2009).
Like-named read-outs stand apart in the source and are kept apart here.

Legend:
[1] = tested on: NIH 3T3 mouse fibroblast cells; experiment: Mitogen-induced cell proliferation; format: cell-based; conditions: for inhibition at 10 µM: NIH3T3, read-out: Mitogen-induced cell proliferation % Inhibition; for IC50: NIH3T3, read-out: Mitogen-induced cell proliferation IC50
From the text: Other cell lines, e.g., cancer cells, endothelial cells and fibroblasts, as well as many others, may be used in the cell proliferation assay. Selection of a particular cell line will depend in part on the desired application, and is well within the capabilities of an ordinarily skilled artisan.

[2] = molecular target: Gardos channel of erythrocytes (Homo sapiens, UniProt O15554); experiment: cell-based; conditions: for inhibition at 10 µM: read-out: Gardos Channel % Inhibition
clinical = format: in vivo; conditions: human, in vivo, read-out: Levels Plasma; for concentration at 6 day of CLT dosing: CLT day 6; for concentration at 10 day (wash-out): Wash-out day 10; for concentration at 13 day (wash-out): Wash-out day 13; for concentration at 20 day (wash-out): Wash-out day 20
[3] = erythrocytes, read-out: Gardos Channel IC50
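Wherever Levels Plasma is given: oral tablet given every 12 h for six days, about 14 mg/kg per day for this subject, with levels then followed in plasma.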

Sequence of Gardos channel of erythrocytes (O15554 whole entry): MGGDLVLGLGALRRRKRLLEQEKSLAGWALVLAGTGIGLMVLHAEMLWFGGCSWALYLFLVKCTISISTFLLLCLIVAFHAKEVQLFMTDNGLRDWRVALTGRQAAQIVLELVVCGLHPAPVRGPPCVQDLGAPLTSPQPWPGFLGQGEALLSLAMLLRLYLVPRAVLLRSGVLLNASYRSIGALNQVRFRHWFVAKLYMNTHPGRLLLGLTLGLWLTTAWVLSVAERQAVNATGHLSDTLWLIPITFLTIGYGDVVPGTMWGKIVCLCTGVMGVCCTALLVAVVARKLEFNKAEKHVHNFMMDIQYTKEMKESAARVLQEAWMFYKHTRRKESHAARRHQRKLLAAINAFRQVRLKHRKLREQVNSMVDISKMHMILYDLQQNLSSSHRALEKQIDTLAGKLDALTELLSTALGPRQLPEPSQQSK

With O=CC(c1ccccc1)(c1ccccc1)c1ccccc1Cl [Compound 15, 2-chlorophenyl-diphenylacetaldehyde] the inhibition at 10 µM [1] was 88.6%, the IC50 [1] was 2600 nM and the IC50 [2, 3] was 96.8 nM. It also gave an inhibition at 10 µM [2] of 100% and a melting point of 126 to 129 °C.

In the case of O=CC(c1ccccc1)(c1ccccc1)c1ccccc1 [Compound 16, triphenylacetaldehyde], the inhibition at 10 µM [1] is reported as 99.4%, the IC50 [1] is reported as 400 to 2000 nM and the IC50 [2, 3] is reported as 87 nM. It also gave an inhibition at 10 µM [2] of 98% and a melting point of 91 to 96 °C.

Clc1ccccc1C(c1ccccc1)c1ccccc1 [Compound 17, 2-chlorophenyl-diphenylmethane] showed an inhibition at 10 µM [1] of 91.8%, an IC50 [1] of 3900 nM and a concentration at 6 day of CLT dosing (clinical; 500 mg, Subject A) of 1800 nM. The concentration at 6 day (wash-out) (clinical; 500 mg, Subject A, Wash-out day 6) was less than 100 nM, the concentration at 10 day (wash-out) (clinical; 500 mg, Subject A) was less than 100 nM and the concentration at 13 day (wash-out) (clinical; 500 mg, Subject A) was 0 nM. It also gave a concentration at 20 day (wash-out) (clinical; 500 mg, Subject A) of 0 nM, a concentration at 3 day of CLT dosing (clinical; 500 mg, Subject B, CLT day 3) of 1650 nM and a concentration at 6 day of CLT dosing (clinical; 500 mg, Subject B) of 2500 nM. The concentration at 8 day (wash-out) (clinical; 500 mg, Subject B, Wash-out day 8) was less than 100 nM, the concentration at 10 day (wash-out) (clinical; 500 mg, Subject B) was less than 100 nM and the concentration at 13 day (wash-out) (clinical; 500 mg, Subject B) was 0 nM. The concentration at 20 day (wash-out) (clinical; 500 mg, Subject B) was 0 nM, the concentration at 3 day of CLT dosing (clinical; Subject A, CLT day 3, oral CLT 500 mg every twelve hours) was 700 nM and the IC50 [2] was 860 nM. For the same compound, the inhibition at 10 µM [2] was 100% and the melting point was 74 to 76 °C.

Work on NC(=O)CC(c1ccc(Cl)cc1)(c1ccc(Cl)cc1)c1ccc(Cl)cc1 [Compound 30, tris(4-chlorophenyl)propionamide] yielded an inhibition at 10 µM [1] of 99%, an IC50 [1] of 900 nM and an IC50 [2] of 272 nM. It also gave an inhibition at 10 µM [2] of 97% and a melting point of 158 to 160 °C.

With N#CC(c1ccccc1)(c1ccccc1)c1ccccc1F [Compound 32, (2-fluorophenyl)-diphenylacetonitrile] the inhibition at 10 µM [1] was 54%, the IC50 [2] was 68 nM and the inhibition at 10 µM [2] was 95.7%. For the same compound, the melting point was 144 to 145 °C.

Compound O=C(O)CC(c1ccccc1)(c1ccccc1)c1ccccc1Cl [Compound 36, 3-(2-chlorophenyl)-3,3-diphenylpropionic acid] has an inhibition at 10 µM [1] of 92%, an IC50 [1] of 600 nM and an IC50 [2, 3] of 3110 nM. For the same compound, the inhibition at 10 µM [2] was 78.6% and the melting point was 180 to 182 °C.

For COC(=O)c1ccc(C(O)(c2ccccc2)c2ccccc2)cc1 [Compound 62], the inhibition at 10 µM [1] was 31%, the IC50 [2] was 98 nM and the inhibition at 10 µM [2] was 98%.

Compound OC(c1ccccc1)(c1ccccc1)c1cccnc1 [Compound 63] has an inhibition at 10 µM [1] of 37%, an IC50 [2] of 1020 nM and an inhibition at 10 µM [2] of 69%.

With N#CCCC(c1ccccc1)(c1ccccc1)c1ccccc1 [Compound 64, 4,4,4-triphenylbutronitrile] the inhibition at 10 µM [1] was 63%, the IC50 [1] was 5800 nM and the IC50 [2, 3] was 88 nM. The inhibition at 10 µM [2] was 100%.

Compound O=CCC(c1ccc(Cl)cc1)(c1ccc(Cl)cc1)c1ccc(Cl)cc1 [Compound 65] has an inhibition at 10 µM [1] of 99%, an IC50 [1] of 1600 nM and an IC50 [2] of 435 nM. For the same compound, the inhibition at 10 µM [2] was 98%.

Work on Brc1ccc(C(c2ccccc2)c2ccc(Br)cc2)cc1 [Compound 66] yielded an inhibition at 10 µM [1] of 73%, an IC50 [2] of 384 nM and an inhibition at 10 µM [2] of 67.2%.

Work on CCC(c1ccccc1)(c1ccccc1)c1ccc(O)cc1 [Compound 67] yielded an inhibition at 10 µM [1] of 98%, an IC50 [1] of 1400 nM and an IC50 [2, 3] of 430 nM. It also gave an inhibition at 10 µM [2] of 96.1%.

In the case of OC(c1ccccc1)(c1ccccc1)c1ccc(C(F)(F)F)cc1 [Compound 68], the inhibition at 10 µM [1] is reported as 98%, the IC50 [1] is reported as 3100 nM and the IC50 [2] is reported as 236 nM. The inhibition at 10 µM [2] was 97.5%.

O=C(CBr)C(c1ccccc1)(c1ccccc1)c1ccccc1 [Compound 69] showed an inhibition at 10 µM [1] of 99%, an IC50 [2, 3] of 25 nM and an inhibition at 10 µM [2] of 100%.

With N#CCc1ccc([Si](c2ccccc2)(c2ccccc2)c2ccccc2)cc1 [Compound 71] the inhibition at 10 µM [1] was 97%, the IC50 [1] was 1100 nM and the inhibition at 10 µM [2] was 0.4%.

OCCCC[Si](c1ccccc1)(c1ccccc1)c1ccccc1 [Compound 73] showed an inhibition at 10 µM [1] of 99%, an IC50 [1] of 2500 nM and an IC50 [2] of 371 nM. The inhibition at 10 µM [2] was 98.9%.

For O=C(O)CCC(c1ccccc1)(c1ccccc1)c1ccccc1 [Compound 74], the inhibition at 10 µM [1] was 70%, the IC50 [2, 3] was 1400 nM and the inhibition at 10 µM [2] was 97.5%.

For NC(=O)C(c1ccccc1)(c1ccccc1)c1ccccc1Cl [Compound 75, (2-chlorophenyl)-diphenylacetamide], the inhibition at 10 µM [1] was 90%, the IC50 [2, 3] was 6 nM and the inhibition at 10 µM [2] was 98%. It also gave a melting point of 197 to 198.5 °C.

With NC(=O)CCC(c1ccccc1)(c1ccccc1)c1ccccc1 [Compound 78] the inhibition at 10 µM [1] was 72%, the IC50 [2, 3] was 220 nM and the inhibition at 10 µM [2] was 95%.

O=CCC(c1ccccc1)(c1ccccc1)c1ccccc1Cl [Compound 79, 3-(2′-chlorophenyl)-3,3-diphenylpropanal] showed an inhibition at 10 µM [1] of 99%, an IC50 [1] of 2700 nM and an IC50 [2, 3] of 83 nM. For the same compound, the inhibition at 10 µM [2] was 96% and the melting point was 92 to 93 °C.

For O=C(O)C(c1ccccc1)(c1ccccc1)c1ccccc1Cl [Compound 80], the inhibition at 10 µM [1] was 62%, the IC50 [2, 3] was 206 nM and the inhibition at 10 µM [2] was 97%.

In the case of COc1ccc(C(O)(c2ccccc2)c2ccccc2Cl)cc1 (stereo not shown) [Compound 81], the inhibition at 10 µM [1] is reported as 53%, the IC50 [2, 3] is reported as 187 nM and the inhibition at 10 µM [2] is reported as 100%.

In the case of CC(=O)CC(c1ccccc1)(c1ccccc1)c1ccccc1Cl [Compound 82, 4-(2-chlorophenyl)-4,4-diphenyl-2-butanone], the inhibition at 10 µM [1] is reported as 98%, the IC50 [1] is reported as 5000 nM and the IC50 [2, 3] is reported as 27 nM. The inhibition at 10 µM [2] was 99.5%.

COc1ccc(C(c2ccccc2)c2ccccc2Cl)cc1 (stereo not shown) [Compound 83] showed an inhibition at 10 µM [1] of 80%, an IC50 [1] of 6400 nM and an IC50 [2, 3] of 918 nM. For the same compound, the inhibition at 10 µM [2] was 96.7%.

Oc1ccc(C(O)(c2ccccc2)c2ccccc2Cl)cc1 (stereo not drawn) [Compound 84, α-(2-chlorophenyl)-α-(4-hydroxyphenyl)benzyl alcohol] gave an inhibition at 10 µM [1] of 99%, an IC50 [1] of 1000 nM and an IC50 [2] of 1270 nM. The inhibition at 10 µM [2] was 95.3% and the melting point was 56.5 to 60 °C.

In the case of Oc1ccc(C(c2ccccc2)c2ccccc2Cl)cc1 (stereo not shown) [Compound 85], the inhibition at 10 µM [1] is reported as 91%, the IC50 [1] is reported as 7000 nM and the IC50 [2, 3] is reported as 739 nM. It also gave an inhibition at 10 µM [2] of 98%.

For Cc1ccc(C(c2cc(Cl)ccc2N)c2ccccc2Cl)cc1 (stereo not shown) [Compound 86], the inhibition at 10 µM [1] was 99%, the IC50 [1] was 2400 nM and the IC50 [2, 3] was 237 to 455 nM. For the same compound, the inhibition at 10 µM [2] was 93.9%.

Compound CCOC(=O)C(c1ccccc1)(c1ccccc1)N1CCCCC1 [Compound 87] has an inhibition at 10 µM [1] of 96%, an IC50 [1] of 2200 nM and an IC50 [2, 3] of 68 nM. It also gave an inhibition at 10 µM [2] of 99%.

In the case of OC(c1ccccc1)(c1ccccc1)C1CCCCC1 [Compound 88, cyclohexyl-diphenylmethanol], the inhibition at 10 µM [1] is reported as 94%, the IC50 [1] is reported as 9500 nM and the IC50 [2, 3] is reported as 862 nM. For the same compound, the inhibition at 10 µM [2] was 99% and the melting point was 76 to 78 °C.

In the case of N#CC(c1ccccc1)(c1ccccc1)C1CCCCC1 [Compound 89, cyclohexyl-diphenylacetonitrile], the inhibition at 10 µM [1] is reported as 98%, the IC50 [1] is reported as 900 nM and the IC50 [2, 3] is reported as 6130 nM. The inhibition at 10 µM [2] was 70.2% and the melting point was 117.5 to 119 °C.

With NC(=O)C(c1ccccc1)(c1ccccc1)C1CCCCC1 [Compound 90, Cyclohexyl-diphenylacetamide] the inhibition at 10 µM [1] was 86%, the IC50 [1] was 3000 nM and the IC50 [2, 3] was 72 nM. For the same compound, the inhibition at 10 µM [2] was 98.3%.
